In ChEMBL document CHEMBL3044675, “Synthesis and Antifungal Activities of Some Novel Pyrimidine Derivatives” (2011):

Assays:
Format in all cases: functional
Fusarium graminearum = assay: Antifungal activity against Fusarium graminearum at 50 ug/ml by poisoned food technique
Ceratobasidium cereale = assay: Antifungal activity against Ceratobasidium cereale at 50 ug/ml by poisoned food technique
Mycosphaerella arachidis = assay: Antifungal activity against Mycosphaerella arachidis at 50 ug/ml by poisoned food technique
Fusarium fujikuroi = assay: Antifungal activity against Fusarium fujikuroi at 50 ug/ml by poisoned food technique
Alternaria kikuchiana = assay: Antifungal activity against Alternaria kikuchiana at 50 ug/ml by poisoned food technique
Alternaria mali = assay: Antifungal activity against Alternaria mali at 50 ug/ml by poisoned food technique
Botrytis cinerea = assay: Antifungal activity against Botryotinia fuckeliana at 50 ug/ml by poisoned food technique
Bipolaris maydis = assay: Antifungal activity against Cochliobolus heterostrophus at 50 ug/ml by poisoned food technique
Phytophthora infestans = assay: Antifungal activity against Phytophthora infestans at 50 ug/ml by poisoned food technique
Rhizoctonia solani = assay: Antifungal activity against Rhizoctonia solani at 50 ug/ml by poisoned food technique
Alternaria solani = assay: Antifungal activity against Alternaria solani at 50 ug/ml by poisoned food technique
Sclerotinia sclerotiorum = assay: Antifungal activity against Sclerotinia sclerotiorum at 50 ug/ml by poisoned food technique
Macrophoma = assay: Antifungal activity against Macrophoma kuwatsukai at 50 ug/ml by poisoned food technique
Thanatephorus cucumeris = assay: Antifungal activity against Thanatephorus cucumeris at 50 ug/ml by poisoned food technique

| SMILES | Activity (Fusarium graminearum) [%] | Activity (Ceratobasidium cereale) [%] | Activity (Mycosphaerella arachidis) [%] | Activity (Fusarium fujikuroi) [%] | Activity (Alternaria kikuchiana) [%] | Activity (Alternaria mali) [%] | Activity (Botrytis cinerea) [%] | Activity (Bipolaris maydis) [%] | Activity (Phytophthora infestans) [%] | Activity (Rhizoctonia solani) [%] | Activity (Alternaria solani) [%] | Activity (Sclerotinia sclerotiorum) [%] | Activity (Macrophoma) [%] | Activity (Thanatephorus cucumeris) [%] |
| --- | --- | --- | --- | --- | --- | --- | --- | --- | --- | --- | --- | --- | --- | --- |
| Cc1cc(NC2CCCCC2)nc(C(C)C)n1 | 22.2 | 0 | 46.7 | 13.3 | 27.3 | 21.4 | 3.7 | 13 | 36.4 | 55.6 | 0 | 33.3 | 0 | 52.9 |
| COc1ccc(/C(=C\C(=O)N2CCOCC2)c2ccc(F)cc2)cc1OC [FLUMORPH] | 7.4 | 20 | 0 | 13.3 | 18.2 | 21.4 | 7.4 | 17.4 | 4.5 | 61.9 | 0 | 0 | 21.9 | 9.8 |
| COc1cc(OC)nc(NCc2ccc(Cl)nc2)n1 | 0 | 5 | 0 | 20 | 18.2 | 0 | 40.7 | 17.4 | 9.1 | 54 | 0 | 20 | 46.9 | 2 |
| Cc1cc(OC(=O)c2ccc(F)cc2)nc(C(C)C)n1 |  | 0 | 0 | 46.7 | 27.3 | 21.4 | 14.8 | 13 | 18.2 | 55.6 | 0 | 40 | 46.9 | 15.7 |
| COc1cc(C(=O)Oc2cc(C)nc(C(C)C)n2)cc(OC)c1OC |  | 15 | 6.7 | 20 | 31.8 | 28.6 | 14.8 | 26.1 |  | 63.5 | 0 | 66.7 | 40.6 | 9.8 |
| Cc1cc(OC(=O)c2ccc(Cl)cc2)nc(C(C)C)n1 | 40.7 | 0 | 6.7 | 53.3 | 22.7 | 21.4 | 33.3 | 26.1 | 13.6 | 61.9 | 0 | 60 | 37.5 | 0 |
| Cc1cc(OC(=O)N2CCOCC2)nc(C(C)C)n1 | 7.4 | 20 | 6.7 | 6.7 | 40.9 | 0 | 18.5 | 17.4 | 0 | 61.9 | 0 | 0 | 31.3 | 19.6 |
| COC(=O)Nc1nc2ccccc2[nH]1 [CARBENDAZIM] | 59.3 | 100 | 53.3 | 60 | 81.8 | 78.6 | 63 | 69.6 | 27.3 | 100 | 76.5 | 73.3 | 43.8 | 98 |
| Cc1cc(OCc2ccc(Cl)nc2)nc(C(C)C)n1 | 25.9 | 35 | 13.3 | 20 | 45.5 | 21.4 | 29.6 | 34.8 | 22.7 | 63.5 | 41.2 | 0 | 31.3 | 80.4 |
| Cc1cc(Nc2ccccc2)nc(C(C)C)n1 | 7.4 | 5 | 33.3 | 0 | 27.3 | 21.4 | 7.4 | 26.1 | 0 | 57.1 | 11.8 | 0 | 21.9 | 39.2 |
| COc1ccc(C(=CC(=O)N2CCOCC2)c2ccc(Cl)cc2)cc1OC [DIMETHOMORPH] | 0 | 40 | 0 | 20 | 22.7 | 7.1 | 18.5 | 17.4 | 9.1 | 68.3 | 5.9 | 20 | 6.3 | 23.5 |
| COc1cc(OC)nc(NCc2cnc(Cl)s2)n1 | 29.6 | 5 | 13.3 | 26.7 | 31.8 | 21.4 | 37 | 17.4 | 0 | 60.3 | 5.9 | 0 | 46.9 | 2 |
| Cc1cc(OCc2cnc(Cl)s2)nc(C(C)C)n1 | 14.8 | 30 | 0 | 20 | 18.2 | 0 | 7.4 | 17.4 | 0 | 61.9 | 0 | 0 | 31.3 | 3.9 |
| Cc1cc(C)nc(Nc2ccccc2)n1 [PYRIMETHANIL] | 44.4 | 40 | 100 | 20 | 100 | 21.4 | 96.3 | 91.3 | 22.7 | 77.8 | 100 | 86.7 | 100 | 98 |
| Cc1cc(O)no1 [HYMEXAZOL] | 33.3 | 25 | 93.3 | 40 | 81.8 | 85.7 | 70.4 | 34.8 | 36.4 | 63.5 | 88.2 | 66.7 | 50 | 78.4 |
| Cc1cc(Nc2ccc(OC(F)(F)F)cc2)nc(C(C)C)n1 | 44.4 | 25 | 46.7 | 40 | 63.6 | 50 | 25.9 | 39.1 | 36.4 | 66.7 | 35.3 | 0 | 25 | 76.5 |
